According to US20140227208A1, “COSMETIC COMPOSITIONS CONTAINING SUBSTITUTED AZOLE AND METHODS FOR ALLEVIATING MECHANICALLY-INDUCED SKIN INFLAMMATION” (The Procter & Gamble Company, priority 2013, published 2014):
Where two headings read alike, the source gives them in different places.

How the values were obtained:
CYP3A4 = CYP3A4 (Homo sapiens, UniProt P08684); assay: In vitro CYP/CYP3A4 inhibition assay (P450-GLO Assay kit, Promega)
Description: The metabolism of retinoic acid and vitamin D in the skin is incompletely understood, but there is evidence for the involvement of CYP26A1, CYP3A4 and CYP2C8 in catalyzing the 4-hydroxylation of all-trans RA to 4-hydroxy-RA. It is believed, without being limited by theory, that CYP3A4 may be particularly important for ATRA metabolism in the skin. This is because CYP3A4 is expressed in skin, involved in RA metabolism, a CYP with one of the broadest substrate specificities of all of the known CYPs and available as a human recombinant protein in a commercial kit. Thus, a commercially available CYP3A4 assay was used as a surrogate to predict RAMBA potential in the skin.
The commercially available P450-GLO™ Assay kit (Promega Corporation, Madison Wis.) was used to screen various compounds for potential CYP activity, specifically CYP3A4A inhibition activity. CYP3A4A is thought to be among the primary CYP isoforms responsible for retinoic acid metabolism in the skin.
The commercially available P450-GLO™ Assay kit (Promega Corporation, Madison Wis.) was used to screen various compounds for potential CYP activity, specifically CYP3A4A inhibition activity. CYP3A4A is thought to be one of the primary CYP isoforms responsible for retinoic acid metabolism in the skin.

[1] = system: mechanically-induced skin inflammation (shaving); assay: Method of treatment: shaving cream and leave-on skin cream applied to facial and neck regions; type: in vivo, human; conditions: 0.55% by weight in shaving cream before and leave-on cream after shaving, topical, 8 weeks
Description: A test subject topically applies a shaving cream composition comprising 0.55% 1-phenylimidazole, by weight in a vehicle, to the facial and neck regions prior to shaving. A leave-on skin cream comprising 0.55% 1-phenylimidazole, by weight in a vehicle, is applied to the same facial and neck regions after shaving.

[2] = system: ATRA 4-hydroxylase activity (CYP) of pig liver microsomes; assay: In vitro ATRA 4-hydroxylase (CYP) inhibition assay using pig liver microsomes; conditions: for IC50: 90 min
Description: Cytochrome P450 is a large and diverse group of enzymes that catalyze the oxidation of organic substances. […] Applicant evaluated the potential RAMBA activity of several azoles using pig liver microsomes, a rich source of CYP activity, comprising many different CYP 450 isoforms. […] As understanding in this area has progressed, a more specific CYP inhibition assay can be used to provide better predictivity of activity in human skin. Nevertheless, this assay may still be used as a general predictor of overall CYP activity.
Microsomal preparation: One lobe of fresh pig liver was obtained at the time of slaughter from a food-processing company and immediately placed in ice cold 15 mM KH2PO4/250 mM sucrose (pH 7.4) and kept on ice during transportation. A 10 g sample of liver was minced and homogenized in 30 mls of homogenization buffer (15 mM KH2PO4/250 mM sucrose) using a Tekmar homoginizer by pulsing 3 times 20 second pulses. […] The remaining pig liver was cut into 10-g pieces and wrapped in aluminum foil and stored at −80° C. The homogenates from the 8 samples were pooled and centrifuged at 13,000×g for 20 minutes at 4° C. to remove crude debris and the supernatant was further centrifuged at 100,000×g for 70 minutes at 4° C. The microsomal pellets were resuspended into 50 mls of 150 mM KH2PO4/1 mM DTT (pH 7.4) and 1 mL aliquots were stored at −80° C. In vitro 4-hydroxylase activity assay: All procedures were carried out under minimal light in order to prevent degradation of the retinoid samples. The ATRA 4-hydroxylase assay can be described briefly as follows: 100-150 μg of pig liver microsomal protein in 150 mM KH2PO4 was incubated at 37° C. in the presence of radiolabeled ATRA and 5 mM NADPH for 90 min. The final ATRA concentration was 1 μM, as a combination of [20-Methyl-^3H]ATRA and unlabeled ATRA. Initially radiolabeled ATRA was used to assist in validating the method. Once retention times of retinoid metabolites were identified unlabeled ATRA was used for screening. Compounds tested as possible competitive substrates were added to the assay 10 min prior to the addition of ATRA. Ethanol, containing 0.1% butylated hydroxytoluene (BHT) as an antioxidant, was used to stop the reactions. For recovery of ATRA the pH of reactions were adjusted to 3.0 before extraction with 0.1N HCl. Retinoids were extracted from the protein aqueous phase with 4 mls hexane, 1 ml 100 μg/ml BHT in water (pH 3). An additional 4 mls of hexane (pH 3) was used for a second extraction. The organic extractions were pooled, evaporated to dryness using a speed vac, and resuspended in 62.5 μl acetonitrile containing 1 mg/ml BHT. Samples were analyzed by HPLC. […] Mobile phases used for gradient elution of retinoids were those of Duell et al., J. Clin. Invest. […] Mobile phase A was acetonitrile:0.02 M ammonium acetate:acetic acid (1:1:0.01) and mobile phase B was acetonitrile:0.2M ammonium acetate;acetic acid (19:1:0.008). […] Because of the sensitivity limitations of the β-RAM spectrometer, it was not used to quantitate peak areas but rather to confirm ATRA and ATRA 4-hydroxylase activity. Calculated peaks areas (using Millenium software—Waters Corp.) of ATRA and ATRA metabolites were used to quantify relative activity levels.

[3] = P450-GLO Assay kit, human recombinant CYP3A4
[4] = IC50 (uM), CYP3A4 inhibition, P450-GLO Assay kit, human recombinant CYP3A4
[5] = read-out: IC50 (μM), in vitro 4-hydroxylase inhibition assay, pig liver microsomes, 1 μM ATRA, 5 mM NADPH, 37° C.
[6] = read-out: IC50 (uM), CYP3A4 inhibition, P450-GLO Assay kit, human recombinant CYP3A4

CYP3A4, sequence (P08684 whole entry): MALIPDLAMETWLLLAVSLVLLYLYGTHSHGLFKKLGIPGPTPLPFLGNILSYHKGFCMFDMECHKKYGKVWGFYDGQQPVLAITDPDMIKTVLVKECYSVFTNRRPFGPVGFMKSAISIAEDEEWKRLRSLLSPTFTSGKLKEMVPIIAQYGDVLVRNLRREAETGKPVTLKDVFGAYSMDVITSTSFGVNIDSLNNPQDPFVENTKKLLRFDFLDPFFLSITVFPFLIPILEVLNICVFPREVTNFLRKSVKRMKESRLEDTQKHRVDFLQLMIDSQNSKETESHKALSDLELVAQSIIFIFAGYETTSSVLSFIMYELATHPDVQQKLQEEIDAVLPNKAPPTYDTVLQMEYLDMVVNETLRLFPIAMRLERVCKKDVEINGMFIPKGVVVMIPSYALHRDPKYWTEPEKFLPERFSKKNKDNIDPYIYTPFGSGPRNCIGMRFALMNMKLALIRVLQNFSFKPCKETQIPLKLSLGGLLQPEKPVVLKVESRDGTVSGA

Cc1ccc2cc3c(ccc4ccccc43)c3c2c1CC3 [Methylcholanthrene]
Hit / no hit for inhibition of CYP3A4 (CYP3A4; [3]): Near Hit

O=C(n1ccnc1)n1ccnc1 [1′-1-Carbonylimidazole]
IC50 (CYP3A4; [4]): > 10 µM

NCCCn1ccnc1 [N-(3-Aminopropyl) imidazole]
IC50 (CYP3A4): > 10 µM

C=Cn1ccnc1 [1-Vinylimidazole]
IC50 (CYP3A4; [4]): > 10 µM

Nc1nc[nH]n1 [Amitrol]
IC50 (CYP3A4): > 10 µM

c1ccc(-n2ccnc2)cc1 [1-phenylimidazole]
facial and neck skin inflammation noted by the subject [1]: significantly less inflamed | CYP inhibitory activity (in words), 4-hydroxylase assay ([2]; pig liver microsomes): IC50 values in the same range as climbazole | IC50 [2, 5]: 52.5 µM | inhibitory activity in the CYP3A4 assay (in words) (CYP3A4; P450-GLO Assay kit): showed inhibitory activity | Hit / no hit for inhibition of CYP3A4 (CYP3A4; [3]): Hit | IC50 (CYP3A4; human, recombinant enzyme): 1 µM

CCc1nc(C)c[nH]1 [2-Ethyl-4-methylimidazole]
IC50 (CYP3A4; [4]): > 10 µM

c1ccc(-c2nc[nH]c2-c2ccccc2)cc1 [4,5-diphenylimidazole]
IC50 ([2]; pig): 100 µM

c1ccc2[nH]cnc2c1 [Benzimidazole]
IC50 (CYP3A4; [4]): > 10 µM

Clc1ncnc2[nH]cnc12 [6-Chloropurine]
IC50 (CYP3A4; [4]): > 10 µM

CCc1cccc(C)c1N(C(=O)CCl)C(C)COC (centres unmarked) [Metolachlor]
IC50 (CYP3A4): > 10 µM | Hit / no hit for inhibition of CYP3A4 (CYP3A4; [3]): no hit (weak/no inhibition (IC50 value>10 μM))

Cc1nccn1Cc1ccccc1 [1-benzyl-2-methylimidazole]
IC50 ([2]; pig): 308 µM

CCc1ncc[nH]1 [2-Ethylimidazole]
IC50 (CYP3A4): > 10 µM

Clc1ccc(COC(Cn2ccnc2)c2ccc(Cl)cc2Cl)c(Cl)c1 (centres unmarked) [Miconazole]
Hit / no hit for inhibition of CYP3A4 (CYP3A4; human, recombinant enzyme): Hit 5 uM

N=C(N)c1ccc(OCCCCCCOc2ccc(C(=N)N)cc2)cc1 [Hexamidine diisethionate]
IC50 (CYP3A4; [4]): > 10 µM

CC(=O)n1ccnc1 [1-Acetylimidazole]
IC50 (CYP3A4; [4]): > 10 µM

c1ccc(-c2c[nH]cn2)cc1 [4-phenylimidazole]
CYP inhibitory activity (in words), 4-hydroxylase assay ([2]; pig liver microsomes): IC50 values in the same range as climbazole

Benomyl
Hit / no hit for inhibition of CYP3A4 (CYP3A4; [3]): no hit (weak/no inhibition (IC50 value>10 μM)) | IC50 (CYP3A4; [6]): > 10 µM

c1ccc(-c2ncc[nH]2)cc1 [2-phenylimidazole]
CYP inhibitory activity (in words), 4-hydroxylase assay ([2]; pig liver microsomes): lacked any significant inhibitory activity | IC50 [2, 5]: > 500 µM | IC50 (CYP3A4): > 10 µM | inhibitory activity in the CYP3A4 assay (in words) (CYP3A4): did not

CCCCc1nc(C=O)c(Cl)[nH]1 [2-Butyl-4-chloro-5-formylimidazole]
IC50 (CYP3A4): > 10 µM

Clc1ccccc1-c1nc2ccccc2[nH]1 [2-(2-Chlorophenyl) benzimidazole]
IC50 (CYP3A4; [4]): > 10 µM

Glutamylamidoethyl imidazole
Hit / no hit for inhibition of CYP3A4 (CYP3A4; [3]): no hit (weak/no inhibition (IC50 value>10 μM)) | IC50 (CYP3A4; [6]): > 10 µM

c1ccc(-c2n[nH]cc2-c2ccnc3ccccc23)nc1 [LY-364947]
IC50 (CYP3A4): > 10 µM

CC(C)(C(=O)c1cccnc1)c1cccnc1 [Metyrapone]
IC50 (CYP3A4): 3 µM | Hit / no hit for inhibition of CYP3A4 (CYP3A4; human, recombinant enzyme): Hit

c1ccc(Cn2ccnc2)cc1 [1-benzylimidazole]
IC50 [2, 5]: 77.5 µM

CC(=O)/C=C/C1=C(C)CCCC1(C)C [β-Ionone]
IC50 (CYP3A4; [4]): > 10 µM

Cc1cccc(C)c1N(Cn1cccn1)C(=O)CCl [Metazachlor]
IC50 (CYP3A4): > 10 µM | Hit / no hit for inhibition of CYP3A4 (CYP3A4; human, recombinant enzyme): no hit >10UM (key: hit: strong inhibition (IC50 value<10 μM); no hit: weak/no inhibition (IC50 value>10 μM))

CC1=N[C@H](C(=O)O)CCN1 [Ectoine]
IC50 (CYP3A4; [4]): > 10 µM

Cn1ccnc1 [1-Methylimidazole]
IC50 (CYP3A4): > 10 µM

N[C@@H](Cc1c[nH]cn1)C(=O)O [Histidine]
IC50 (CYP3A4; [4]): > 10 µM

Piperine
Hit / no hit for inhibition of CYP3A4 (CYP3A4; [3]): Hit | IC50 (CYP3A4; [6]): ~10 µM

c1coc(-c2nc3ccccc3[nH]2)c1 [Fuberidazole]
IC50 (CYP3A4): > 10 µM | Hit / no hit for inhibition of CYP3A4 (CYP3A4; human, recombinant enzyme): no hit >10 uM (key: hit: strong inhibition (IC50 value<10 μM); no hit: weak/no inhibition (IC50 value>10 μM))

Cc1ncc[nH]1 [2-Methylimidazole]
IC50 (CYP3A4; [4]): > 10 µM

CC(=O)c1ccc(-n2ccnc2)cc1 [4′-(Imidazol-1yl) acetophenome]
IC50 (CYP3A4; [4]): 0.8 µM | Hit / no hit for inhibition of CYP3A4 (CYP3A4; human, recombinant enzyme): Hit
